This is an account of results in ChEMBL document CHEMBL4020745 (Bioorg Med Chem Lett, 2017).

By EC50 is commonly meant the midpoint of the concentration-response curve. Low values mean higher potency in that assay, high ones lower potency in that assay. For orientation: IC50 means the concentration that gives 50% inhibition.

Common to all, as to type: cell-based
Data set [1] deals with T1, Peroxisome proliferator-activated receptor gamma (Homo sapiens, UniProt P37231).
T1 sequence (P37231 whole entry): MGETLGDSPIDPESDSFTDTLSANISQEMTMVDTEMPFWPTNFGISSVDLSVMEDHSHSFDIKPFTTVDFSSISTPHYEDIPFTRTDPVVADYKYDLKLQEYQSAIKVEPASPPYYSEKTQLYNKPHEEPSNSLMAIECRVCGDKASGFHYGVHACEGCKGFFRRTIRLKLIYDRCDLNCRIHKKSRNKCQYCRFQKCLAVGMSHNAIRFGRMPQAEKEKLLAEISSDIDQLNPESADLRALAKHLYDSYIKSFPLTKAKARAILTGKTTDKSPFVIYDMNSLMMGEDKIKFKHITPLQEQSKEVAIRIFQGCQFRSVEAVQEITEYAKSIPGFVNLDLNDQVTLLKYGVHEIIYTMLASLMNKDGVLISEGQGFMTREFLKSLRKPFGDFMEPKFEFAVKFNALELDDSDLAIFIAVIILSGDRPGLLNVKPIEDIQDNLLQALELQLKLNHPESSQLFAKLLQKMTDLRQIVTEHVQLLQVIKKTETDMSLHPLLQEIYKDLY
The data set can be described thus: Transactivation activity at Gal4 fused […] human PPARgamma LBD expressed in HEK293 cells after 24 hrs by luciferase reporter gene assay. A general note: In a reporter assay the amount or activity of a reporter protein is the signal.

Data set [2] concerns the target T1, Peroxisome proliferator-activated receptor gamma. The experiment in a line: Transrepression activity at human PPARgamma expressed in HEK293 cells assessed as inhibition of TNFalpha induced NF-kappaB promoter activity pretreated for 4 hrs followed by TNFalpha stimulation after 3 hrs by luciferase reporter gene assay.
In the next data set the test system is HEK293. The data set can be described thus: Cytotoxicity against HEK293 cells harboring beta-galactosidase expression plasmid assessed as effect on beta-galactosidase activity. The conditions noted are these: human.
The nature of data set [3]: Inhibition of TNFalpha induced NF-kappaB (unknown origin) activation expressed in PPARgamma deficient HEK293 cells pretreated for 4 hrs followed by TNFalpha stimulation after 3 hrs by luciferase reporter gene assay. As to conditions: Homo sapiens.

`CN(CCOc1ccc(CC2SC(=O)NC2=O)cc1)c1nc2ccccc2s1` (stereo unspecified): in data set [1], the response was half-maximal at 57 nM (EC50). The 50% inhibitory concentration (IC50) in data set [2] turned out to be 20 µM. Besides, the Activity entry with HEK293 is recorded as “Non-Toxic”.
For `CN(CCOc1ccc(/C=C2\SC(=O)NC2=O)cc1)c1ccc2ccccc2c1`, in data set [1], the concentration giving a half-maximal response (EC50) turned out to be 1600 nM. Moreover, the half-inhibitory concentration (IC50) in data set [2] was determined as 40 µM. For the same compound, the Activity entry in the data set on HEK293 is “Non-Toxic”.
The like results for `CN(CCOc1ccc(/C=C2\SC(=O)NC2=O)cc1)c1nccs1` were, in that order, 700 nM, 42 µM and “Non-Toxic”.
The matching figures for `CCN(CCOc1ccc(CC2SC(=O)NC2=O)cc1)c1nc2ccccc2s1` (stereo unspecified): 52 nM, 25 µM and “Non-Toxic”.
On to `CCN(CCOc1ccc(/C=C2\SC(=O)NC2=O)cc1)c1ccccn1`, for which the midpoint of the response in data set [1], the EC50, lay at 360 nM. In addition, the concentration for half-maximal inhibition (IC50) in data set [2] is 15 µM. In addition, the Activity entry in the data set with HEK293 is “Non-Toxic”.
The like results for `CN(CCOc1ccc(/C=C2\SC(=O)NC2=O)cc1)c1nc2ccccc2[nH]1` were, in that order, 3400 nM, 38 µM and “Non-Toxic”.
The like results for `CCN(CCOc1ccc(/C=C2\SC(=O)NC2=O)cc1)c1nc2ccccc2s1` were, in that order, 820 nM, 17 µM and “Non-Toxic”.
Take `O=C1NC(=O)/C(=C/c2ccc(OCCNc3nc4ccccc4s3)cc2)S1`: a half-maximal effect in data set [1] (EC50) was put at 53 nM. Also, the IC50 stood at 14 µM in data set [2] and 29 µM in data set [3]. Also, the Activity result in the data set on HEK293 was “Non-Toxic”.
In turn, `CCN(CCOc1ccc(CC2SC(=O)NC2=O)cc1)c1ccccn1` (stereo unspecified) came in with an EC50 in data set [1] of 540 nM. Further, the concentration for half-maximal inhibition (IC50) in data set [2] is 21 µM. The Activity entry in the data set on HEK293 is “Non-Toxic”.
The like results for `CC(C)N(CCOc1ccc(CC2SC(=O)NC2=O)cc1)c1nc2ccccc2s1` (stereo unspecified) were, in that order, 530 nM, 20 µM and “Non-Toxic”.
The like results for `CN(CCOc1ccc(/C=C2\SC(=O)NC2=O)cc1)c1nc2ccccc2s1` were, in that order, 310 nM, 13 µM and “Non-Toxic”.
As to `CCc1ccc(CCOc2ccc(CC3SC(=O)NC3=O)cc2)nc1` (stereo unspecified) [PIOGLITAZONE], the Activity entry in the data set with HEK293 is recorded as “Non-Toxic”.
On the same count and under the same terms, under `CN(CCOc1ccc(CC2SC(=O)NC2=O)cc1)c1ccccn1` (stereo unspecified) [ROSIGLITAZONE] stands “Non-Toxic”.
